Assay results as given in patent US20240165244A1 (Prelude Therapeutics Incorporated, priority 2022, published 2024).

Key:
SMARCA4 = target: T1, SMARCA4 (Homo sapiens, UniProt P51532); test: SMARCA4 HiBiT degradation assay in HeLa cells; type: cell-based; details: 18 hours, highest concentration 10 μM
T1 construct: SMARCA4-HiBiT knock-in Hela monoclonal cell (CS3023226); host or cells: HeLa monoclonal cells with heterozygous HiBiT knock-in at the endogenous SMARCA4 locus
Outline: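 HeLa monoclonal cells with HiBiT knocked into SMARCA4 were seeded at 2500 cells/well, dosed with compound and incubated 18 hours at 37° C. HiBiT signal reported remaining SMARCA4 protein, and values came from curve fitting.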

SMARCA2 = target: T2, SMARCA2 (Homo sapiens, UniProt P51531); test: SMARCA2 HiBiT degradation assay in HeLa cells; type: cell-based; details: 18 hours, highest concentration 10 μM
T2 construct: SMARCA2-HiBiT knock-in Hela monoclonal cell (CS302366); host or cells: HeLa monoclonal cells with heterozygous HiBiT knock-in at the endogenous SMARCA2 locus
T2 sequence (P51531 whole entry): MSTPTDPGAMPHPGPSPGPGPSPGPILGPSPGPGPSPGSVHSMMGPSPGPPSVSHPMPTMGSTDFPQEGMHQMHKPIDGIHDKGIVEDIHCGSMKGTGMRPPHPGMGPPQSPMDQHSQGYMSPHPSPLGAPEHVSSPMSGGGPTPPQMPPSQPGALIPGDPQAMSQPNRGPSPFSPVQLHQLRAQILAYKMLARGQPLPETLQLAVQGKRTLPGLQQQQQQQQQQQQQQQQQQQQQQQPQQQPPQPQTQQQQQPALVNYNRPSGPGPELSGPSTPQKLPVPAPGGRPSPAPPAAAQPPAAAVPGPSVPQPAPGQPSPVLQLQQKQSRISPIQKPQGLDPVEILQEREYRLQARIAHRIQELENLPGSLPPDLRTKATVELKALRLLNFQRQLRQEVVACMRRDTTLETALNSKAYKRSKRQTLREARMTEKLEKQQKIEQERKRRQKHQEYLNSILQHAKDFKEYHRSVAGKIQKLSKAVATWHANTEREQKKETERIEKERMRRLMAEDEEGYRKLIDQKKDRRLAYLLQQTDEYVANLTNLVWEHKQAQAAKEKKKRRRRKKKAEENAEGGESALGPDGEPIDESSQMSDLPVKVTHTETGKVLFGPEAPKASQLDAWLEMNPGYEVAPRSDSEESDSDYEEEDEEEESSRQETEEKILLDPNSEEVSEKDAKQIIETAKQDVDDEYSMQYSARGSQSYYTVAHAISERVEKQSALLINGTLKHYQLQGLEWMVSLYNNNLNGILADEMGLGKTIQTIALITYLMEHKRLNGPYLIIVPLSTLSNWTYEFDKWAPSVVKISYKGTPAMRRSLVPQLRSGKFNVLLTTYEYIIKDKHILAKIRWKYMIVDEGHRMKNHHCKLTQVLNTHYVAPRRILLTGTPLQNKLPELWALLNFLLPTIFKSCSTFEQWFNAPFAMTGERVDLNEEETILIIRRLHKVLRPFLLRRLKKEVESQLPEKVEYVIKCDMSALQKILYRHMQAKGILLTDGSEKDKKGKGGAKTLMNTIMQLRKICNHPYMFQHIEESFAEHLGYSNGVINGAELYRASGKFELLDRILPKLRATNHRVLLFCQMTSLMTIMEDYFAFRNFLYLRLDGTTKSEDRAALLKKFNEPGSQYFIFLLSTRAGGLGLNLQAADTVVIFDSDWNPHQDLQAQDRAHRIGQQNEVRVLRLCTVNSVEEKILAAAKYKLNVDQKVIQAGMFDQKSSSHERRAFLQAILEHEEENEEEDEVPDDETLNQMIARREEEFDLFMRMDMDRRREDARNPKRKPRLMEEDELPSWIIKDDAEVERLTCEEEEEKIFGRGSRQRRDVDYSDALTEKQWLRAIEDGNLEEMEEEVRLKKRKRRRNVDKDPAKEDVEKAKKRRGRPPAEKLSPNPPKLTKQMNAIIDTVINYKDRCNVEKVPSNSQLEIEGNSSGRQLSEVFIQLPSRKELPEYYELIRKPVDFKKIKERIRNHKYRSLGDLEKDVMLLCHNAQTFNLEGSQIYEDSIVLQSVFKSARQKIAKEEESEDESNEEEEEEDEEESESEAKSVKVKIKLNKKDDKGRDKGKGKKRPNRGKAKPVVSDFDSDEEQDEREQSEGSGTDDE
Outline: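 Degradation was read as Nano-Glo HiBiT lytic luminescence (30-60 min, RT) and fitted to curves. Compounds in 3-fold dilutions up to 10 μM were applied for 18 h at 37 °C. Cells were 2500/well monoclonal HeLa with a heterozygous C-terminal HiBiT tag on SMARCA2.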

T1 sequence (P51532 whole entry): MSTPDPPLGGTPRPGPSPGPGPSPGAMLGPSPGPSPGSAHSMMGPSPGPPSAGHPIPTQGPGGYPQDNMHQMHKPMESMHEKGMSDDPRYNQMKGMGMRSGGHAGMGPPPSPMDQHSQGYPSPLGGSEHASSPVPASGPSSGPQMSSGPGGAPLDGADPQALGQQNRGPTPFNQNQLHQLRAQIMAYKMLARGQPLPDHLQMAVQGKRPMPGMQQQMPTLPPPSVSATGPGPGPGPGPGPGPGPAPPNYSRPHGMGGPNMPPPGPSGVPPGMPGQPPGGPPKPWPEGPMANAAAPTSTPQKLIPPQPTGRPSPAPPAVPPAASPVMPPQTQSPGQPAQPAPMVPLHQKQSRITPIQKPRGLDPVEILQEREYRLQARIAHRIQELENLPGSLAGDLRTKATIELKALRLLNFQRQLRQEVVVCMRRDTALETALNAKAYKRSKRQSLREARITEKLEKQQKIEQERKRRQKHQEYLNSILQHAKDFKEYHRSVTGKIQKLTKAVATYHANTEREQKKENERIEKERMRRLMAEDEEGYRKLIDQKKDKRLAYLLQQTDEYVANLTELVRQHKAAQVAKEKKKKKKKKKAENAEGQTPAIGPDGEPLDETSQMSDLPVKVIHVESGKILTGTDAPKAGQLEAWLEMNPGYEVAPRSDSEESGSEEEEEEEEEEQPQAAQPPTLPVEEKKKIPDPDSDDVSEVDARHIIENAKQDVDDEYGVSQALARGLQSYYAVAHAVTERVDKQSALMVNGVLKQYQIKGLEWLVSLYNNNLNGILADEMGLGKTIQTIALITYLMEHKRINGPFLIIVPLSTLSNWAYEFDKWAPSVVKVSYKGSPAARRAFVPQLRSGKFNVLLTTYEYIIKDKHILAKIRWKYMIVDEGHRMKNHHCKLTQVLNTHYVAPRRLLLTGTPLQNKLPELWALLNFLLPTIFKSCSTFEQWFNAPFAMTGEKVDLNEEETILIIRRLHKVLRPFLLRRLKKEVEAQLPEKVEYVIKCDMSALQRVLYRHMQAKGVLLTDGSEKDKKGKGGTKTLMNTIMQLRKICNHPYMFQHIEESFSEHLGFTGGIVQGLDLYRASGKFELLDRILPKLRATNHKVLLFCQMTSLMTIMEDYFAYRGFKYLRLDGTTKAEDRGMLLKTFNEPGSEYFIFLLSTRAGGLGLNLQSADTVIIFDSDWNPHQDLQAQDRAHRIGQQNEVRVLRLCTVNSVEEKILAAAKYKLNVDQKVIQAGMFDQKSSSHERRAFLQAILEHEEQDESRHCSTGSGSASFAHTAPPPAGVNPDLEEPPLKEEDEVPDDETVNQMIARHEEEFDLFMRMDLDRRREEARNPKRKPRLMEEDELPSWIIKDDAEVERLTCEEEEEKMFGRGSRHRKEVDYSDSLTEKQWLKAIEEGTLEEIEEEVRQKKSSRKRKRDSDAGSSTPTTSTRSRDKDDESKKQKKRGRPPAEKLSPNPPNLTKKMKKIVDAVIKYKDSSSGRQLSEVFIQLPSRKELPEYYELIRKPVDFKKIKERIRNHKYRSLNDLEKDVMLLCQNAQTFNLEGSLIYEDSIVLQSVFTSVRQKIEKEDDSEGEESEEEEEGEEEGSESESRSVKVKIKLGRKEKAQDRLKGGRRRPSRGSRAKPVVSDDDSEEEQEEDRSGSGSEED

| DC50 (SMARCA4) | DC50 (SMARCA2) | Dmax (SMARCA2) | Dmax (SMARCA4) | Compound |
| --- | --- | --- | --- | --- |
| > 1000 nM | < 100 nM | 50 to 75% | < 50% | Cc1c(O[C@H]2CN3c4cc(-c5cccc(F)c5O)nnc4NC[C@@]3(C(F)F)C2)cnc(CN2CCN(c3ccc4c(c3)C(=O)N([C@H]3CCC(=O)NC3=O)C4)CC2)c1F [Example 45, (S)-3-(6-(4-((5-(((6aR,8R)-6a-(difluoromethyl)-2-(3-fluoro-2-hydroxyphenyl)-5,6,6a,7,8,9-hexahydropyrrolo[1′,2′:4,5]pyrazino[2,3-c]pyridazin-8-yl)oxy)-3-fluoro-4-methylpyridin-2-yl)methyl)piperazin-t-yl)-1-oxoisoindolin-2-yl)piperidine-2,6-dione] |
| < 100 nM | < 100 nM | > 75% | > 75% | Cc1c(O[C@H]2CN3c4cc(-c5cccc(F)c5O)nnc4NC[C@]3(C(F)F)C2)cnc(CN2CCN(c3ccc4c(c3)C(=O)N([C@H]3CCC(=O)NC3=O)C4)CC2)c1C [Example 46, (S)-3-(6-(4-((5-(((6aS,8R)-6a-(difluoromethyl)-2-(3-fluoro-2-hydroxyphenyl)-5,6,6a,7,8,9-hexahydropyrrolo [1′,2′:4,5]pyrazino[2,3-c]pyridazin-8-yl)oxy)-3,4-dimethylpyridin-2-yl)methyl)piperazin-1-yl)-1-oxoisoindolin-2-yl)piperidine-2,6-dione] |
| < 100 nM | < 100 nM | > 75% | > 75% | CCc1cc(CN2CCN(c3ccc4c(c3)C(=O)N([C@H]3CCC(=O)NC3=O)C4)CC2)cnc1O[C@H]1CN2c3cc(-c4cccc(F)c4O)nnc3NC[C@]2(C(F)F)C1 [Example 47, (S)-3-(6-(4-((6-(((6aS,8R)-6a-(difluoromethyl)-2-(3-fluoro-2-hydroxyphenyl)-5,6,6a,7,8,9-hexahydropyrrolo [1′,2′:4,5]pyrazino[2,3-c]pyridazin-8-yl)oxy)-5-ethylpyridin-3-yl)methyl)piperazin-1-yl)-1-oxoisoindolin-2-yl)piperidine-2,6-dione] |
| 100 to 1000 nM | < 100 nM | 50 to 75% | < 50% | Cc1nc(O[C@H]2CN3c4cc(-c5cccc(F)c5O)nnc4NC[C@]3(C(F)F)C2)c(C)nc1CN1CCN(c2ccc3c(c2)C(=O)N([C@H]2CCC(=O)NC2=O)C3)CC1 [Example 48, (S)-3-(6-(4-((5-(((6aS,8R)-6a-(difluoromethyl)-2-(3-fluoro-2-hydroxyphenyl)-5,6,6a,7,8,9-hexahydropyrrolo[1′,2′:4,5]pyrazino[2,3-c]pyridazin-8-yl)oxy)-3,6-dimethylpyrazin-2-yl)methyl)piperazin-1-yl)-1-oxoisoindolin-2-yl)piperidine-2,6-dione] |
| 100 to 1000 nM | < 100 nM | > 75% | < 50% | O=C1CC[C@H](N2Cc3ccc(N4CCN(Cc5ccc(O[C@H]6CN7c8cc(-c9cccc(F)c9O)nnc8NC[C@]7(C(F)F)C6)cn5)CC4)cc3C2=O)C(=O)N1 [Example 49, (S)-3-(6-(4-((5-(((6aS,8R)-6a-(difluoromethyl)-2-(3-fluoro-2-hydroxyphenyl)-5,6,6a,7,8,9-hexahydropyrrolo [1′,2′:4,5]pyrazino[2,3-c]pyridazin-8-yl)oxy)pyridin-2-yl)methyl)piperazin-1-yl)-1-oxoisoindolin-2-yl)piperidine-2,6-dione] |
| < 100 nM | < 100 nM | > 75% | 50 to 75% | CC(C)c1nc(O[C@H]2CN3c4cc(-c5cccc(F)c5O)nnc4NC[C@]3(C(F)F)C2)ncc1CN1CCN(c2ccc3c(c2)C(=O)N(C2CCC(=O)NC2=O)C3)CC1 (stereo partly drawn) [Example 50, 3-(6-(4-((2-(((6aS,8R)-6a-(difluoromethyl)-2-(3-fluoro-2-hydroxyphenyl)-5,6,6a,7,8,9-hexahydropyrrolo [1′,2′:4,5]pyrazino[2,3-c]pyridazin-8-yl)oxy)-4-isopropylpyrimidin-5-yl)methyl)piperazin-1-yl)-1-oxoisoindolin-2-yl)piperidine-2,6-dione] |
| > 1000 nM | < 100 nM | > 75% | < 50% | Cc1nc(O[C@H]2CN3c4cc(-c5cccc(F)c5O)nnc4NC[C@]3(C(F)F)C2)cnc1CN1CCN(c2ccc3c(c2)C(=O)N(C2CCC(=O)NC2=O)C3)CC1 (stereo partly drawn) [Example 51, 3-(6-(4-((5-(((6aS,8R)-6a-(difluoromethyl)-2-(3-fluoro-2-hydroxyphenyl)-5,6,6a,7,8,9-hexahydropyrrolo[1′,2′:4,5]pyrazino[2,3-c]pyridazin-8-yl)oxy)-3-methylpyrazin-2-yl)methyl)piperazin-1-yl)-1-oxoisoindolin-2-yl)piperidine-2,6-dione] |
| > 1000 nM | < 100 nM | > 75% | < 50% | O=C1CCC(N2Cc3ccc(N4CCN(Cc5cnc(O[C@H]6CN7c8cc(-c9cccc(F)c9O)nnc8NC[C@]7(C(F)F)C6)cn5)CC4)cc3C2=O)C(=O)N1 (stereo partly drawn) [Example 52, 3-(6-(4-((5-(((6aS,8R)-6a-(difluoromethyl)-2-(3-fluoro-2-hydroxyphenyl)-5,6,6a,7,8,9-hexahydropyrrolo[1′,2′:4,5]pyrazino[2,3-c]pyridazin-8-yl)oxy)pyrazin-2-yl)methyl)piperazin-1-yl)1-oxoisoindolin-2-yl)piperidine-2,6-dione] |
| < 100 nM | < 100 nM | > 75% | > 75% | COc1cc(CN2CCN(c3ccc4c(c3)C(=O)N(C3CCC(=O)NC3=O)C4)CC2)cnc1O[C@H]1CN2c3cc(-c4cccc(F)c4O)nnc3NC[C@]2(C(F)F)C1 (stereo partly drawn) [Example 53, 3-(6-(4-((6-(((6aS,8R)-6a-(difluoromethyl)-2-(3-fluoro-2-hydroxyphenyl)-5,6,6a,7,8,9-hexahydropyrrolo[1′,2′:4,5]pyrazino[2,3-c]pyridazin-8-yl)oxy)-5-methoxypyridin-3-yl)methyl)piperazin-1-yl)-1-oxoisoindolin-2-yl)piperidine-2,6-dione] |
| < 100 nM | < 100 nM | > 75% | 50 to 75% | O=C1CCC(N2Cc3ccc(N4CCN(Cc5cnc(O[C@H]6CN7c8cc(-c9cccc(F)c9O)nnc8NC[C@]7(C(F)F)C6)c(F)c5)CC4)cc3C2=O)C(=O)N1 (stereo partly drawn) [Example 54, 3-(6-(4-((6-(((6aS,8R)-6a-(difluoromethyl)-2-(3-fluoro-2-hydroxyphenyl)-5,6,6a,7,8,9-hexahydropyrrolo[1′,2′:4,5]pyrazino[2,3-c]pyridazin-8-yl)oxy)-5-fluoropyridin-3-yl)methyl)piperazin-1-yl)-1-oxoisoindolin-2-yl)piperidine-2,6-dione] |
| < 100 nM | < 100 nM | > 75% | 50 to 75% | Cc1cc(O[C@H]2CN3c4cc(-c5cccc(F)c5O)nnc4NC[C@@]3(C)C2)ncc1CN1CCN(c2ccc3c(c2)C(=O)N(C2CCC(=O)NC2=O)C3)CC1 (stereo partly drawn) [Example 55, 3-(6-(4-((6-(((6aR,8R)-2-(3-fluoro-2-hydroxyphenyl)-6a-methyl-5,6,6a,7,8,9-hexahydropyrrolo[1′,2′:4,5]pyrazino[2,3-c]pyridazin-8-yl)oxy)-4-methylpyridin-3-yl)methyl)piperazin-1-yl)-1-oxoisoindolin-2-yl)piperidine-2,6-dione] |
| < 100 nM | < 100 nM | > 75% | 50 to 75% | CC[C@@]12CNc3nnc(-c4cccc(F)c4O)cc3N1C[C@H](Oc1cc(C)c(CN3CCN(c4ccc5c(c4)C(=O)N([C@H]4CCC(=O)NC4=O)C5)CC3)cn1)C2 [Example 56, 3-(6-(4-((6-(((6aR,8R)-6a-Ethyl-2-(3-fluoro-2-hydroxyphenyl)-5,6,6a,7,8,9-hexahydropyrrolo[1′,2′:4,5]pyrazino[2,3-c]pyridazin-8-yl)oxy)-4-methylpyridin-3-yl)methyl)piperazin-1-yl)-1-oxoisoindolin-2-yl)piperidine-2,6-dione] |
| 100 to 1000 nM | < 100 nM | > 75% | < 50% | CC[C@@]12CNc3nnc(-c4cccc(F)c4O)cc3N1C[C@H](Oc1cnc(CN3CCN(c4ccc5c(c4)C(=O)N([C@H]4CCC(=O)NC4=O)C5)CC3)c(C)n1)C2 [Example 57, (S)-3-(6-(4-((5-(((6aR,8R)-6a-ethyl-2-(3-fluoro-2-hydroxyphenyl)-5,6,6a,7,8,9-hexahydropyrrolo[1′,2′:4,5]pyrazino[2,3-c]pyridazin-8-yl)oxy)-3-methylpyrazin-2-yl)methyl)piperazin-1-yl)-1-oxoisoindolin-2-yl)piperidine-2,6-dione] |
| > 1000 nM | < 100 nM | > 75% | < 50% | Cc1cc(O[C@H]2CN3c4cc(-c5cccc(F)c5O)nnc4NC[C@@]3(CF)C2)ncc1CN1CCN(c2ccc3c(c2)C(=O)N([C@H]2CCC(=O)NC2=O)C3)CC1 [Example 58, (S)-3-(6-(4-((6-(((6aR,8R)-2-(3-Fluoro-2-hydroxyphenyl)-6a-(fluoromethyl)-5,6,6a,7,8,9-hexahydropyrrolo[1′,2′:4,5]pyrazino[2,3-c]pyridazin-8-yl)oxy)-4-methylpyridin-3-yl)methyl)piperazin-1-yl)-1-oxoisoindolin-2-yl)piperidine-2,6-dione] |

| Compound | DC50 (SMARCA4) | DC50 (SMARCA2) | Dmax (SMARCA2) | Dmax (SMARCA4) |
| --- | --- | --- | --- | --- |
| CCc1cc(CN2CCN(c3ccc4c(c3)C(=O)N([C@H]3CCC(=O)NC3=O)C4)CC2)cnc1O[C@H]1CN2c3cc(-c4cccc(F)c4O)nnc3NC[C@@]2(C(F)F)C1 [Example 44, (S)-3-(6-(4-((6-(((6aR,8R)-6a-(difluoromethyl)-2-(3-fluoro-2-hydroxyphenyl)-5,6,6a,7,8,9-hexahydropyrrolo[1′,2′:4,5]pyrazino[2,3-c]pyridazin-8-yl)oxy)-5-ethylpyridin-3-yl)methyl)piperazin-1-yl)-1-oxoisoindolin-2-yl)piperidine-2,6-dione] | 100 to 1000 nM | < 100 nM | > 75% | – |
